Experimental data from patent US20080131511A1, “Pharmaceutical Composition for Treatment of Tear and Salivary Fluid Drying” (Astellas Pharma, Inc., priority 2004, published 2008).

Columns and labels:
Type in all cases: in vivo, mouse (male Balb/c)
salivary gland [1] = assay: Salivary fluid secretion after subcutaneous bolus administration; conditions: mice
Protocol: (§1) Male Balb/c mice were used in the test.
(§2) The compound A was dissolved in physiological saline to a concentration of 1, 3, 10, 30 or 100 mg/5 ml, and 5 ml/kg of the drug solution was administered under the dorsal skin. Secreted amounts of salivary and tear fluid were measured just before the administration of compound A and 10, 20, 30, 40 and 50 minutes after the administration. The sweating action was measured 10 minutes after the administration. Also, the growth acceleration action was measured 6 hours after the administration.
as §2, with “Pilocarpine was dissolved” for “The compound A was dissolved”, “concentration of 0.03, 0.1, 0.3, 1, 3 or 10 mg/5 ml, or cevimeline to a concentration of 0.3, 1, 3,” for “concentration of 1, 3,”, “administration of pilocarpine or cevimeline and 10,” for “administration of compound A and 10,”
(§3) The mouth of a mouse was wiped with a cotton ball whose weight had been measured in advance, and the incremental weight was used as the amount of salivary fluid. Also at the same time, a thread for tear fluid measurement (Zone Quick; Menicon) used on the Schirmer test was inserted into the lower eyelid conjunctival sac, and the length of colored part was measured and used as the amount of tear fluid. From the measurement results, area under the secreted amount-versus-time curve (AUC) was calculated.
(§4) All of the test results were expressed as fold increases of the reactions of the drug-administered group versus those of the vehicle-administered group, and comparison between the drug-administered groups and the vehicle-administered group was carried out using Dunnett's t-test. P<0.05 was considered significant. Results

lacrimal gland [2] = assay: Tear fluid secretion after subcutaneous bolus administration; conditions: mice
Protocol: as §1, §2
as §2, with “Pilocarpine was dissolved” for “The compound A was dissolved”, “concentration of 0.03, 0.1, 0.3, 1, 3 or 10 mg/5 ml, or cevimeline to a concentration of 0.3, 1, 3,” for “concentration of 1, 3,”, “administration of pilocarpine or cevimeline and 10,” for “administration of compound A and 10,”
as §3, §4

[3] = test system: ornithine decarboxylase (ODC) activity of parotid salivary gland; assay: Ornithine decarboxylase activity of parotid salivary gland after subcutaneous bolus administration; conditions: mice
Protocol: (§5) Male Balb/c mice were used in the test. […] Also, the growth acceleration action was measured 6 hours after the administration. […] Also, the growth acceleration action was measured 6 hours after the administration. […] Thus, it can be easily analogized that the ODC activity becomes a useful index of cell growth and function of the exocrine gland. Accordingly, the ability of each drug to activate glandular tissue was evaluated by measuring ODC activity of parotid salivary gland and extra-orbital lacrimal gland. The amount of ^14CO2 formed from L-^14C-ornithine was used as the index of ODC activity. A mouse anesthetized with diethyl ether was sacrificed by bleeding, and left and right parotid salivary glands and extra-orbital lacrimal glands were isolated. After removing the attached connective tissue and fat, the isolated glandular tissues homogenized in 1.5 ml of a homogenate buffer (25 mM Tris-HCl buffer (pH 7.4) containing 0.1 mM ethylenediaminetetraacetic acid, 0.4 mM pyridoxal phosphate, 5 mM dithiothreitol and 0.1% Brij 35®) using a Potter type homogenizer and then centrifuged at 4° C., 15,000 g for 30 minutes, and the supernatant was used as the enzyme fraction. […] The ^14CO2 generated by the reaction was captured by 150 μl of 1 N NaOH soaked in a glass filter. Radioactivity of the ^14CO2 captured on the glass filter was detected using a liquid scintillation counter. The enzyme activity (pmol ^14CO2/mg protein/hour) was calculated from the measured results. All of the test results were expressed as fold increases of the reactions of the drug-administered group versus those of the vehicle-administered group, and comparison between the drug-administered groups and the vehicle-administered group was carried out using Dunnett's t-test. P<0.05 was considered significant. Results

[4] = test system: ornithine decarboxylase (ODC) activity of extra-orbital lacrimal gland; assay: Ornithine decarboxylase activity of extra-orbital lacrimal gland after subcutaneous bolus administration; conditions: mice
Protocol: as §5

salivary gland [5] = assay: Salivary fluid secretion during subcutaneous continuous administration (osmotic pump); conditions: mice; for Salivary fluid: AUC of secreted amount
Protocol: as §1
(§6) The compound A was dissolved in physiological saline to a concentration of 0.625, 1.25, 2.5, 5.0, 10 or 20 mg/200 μl, and filled each pump (Alzet mini-osmotic pump 2001D, 8 μl/h, 1 day; DURECT Corporation) with about 200 μl portions It means, that is, each pump releases at a rate of 0.025, 0.05, 0.1, 0.2, 0.4 or 0.8 mg compound A/h, respectively. About 5 mm of dorsal epidermis of a mouse anesthetized with diethyl ether was incised, the osmotic pump already filled with the compound A was subcutaneously implanted, and then the skin was stitched. Secreted amounts of salivary and tear fluid and sweating were periodically measured from just before the implantation of pump until 32 hours after the administration. The ornithine decarboxylase activity was measured 10 hours after the implantation.
(§7) Pilocarpine was dissolved in physiological saline to a concentration of 0.039, 0.078, 0.16 or 0.31 mg/200 μl, or cevimeline to a concentration of 0.16, 0.31, 0.63 or 1.3 mg/200 μl, and filled the osmotic pump (Alzet mini-osmotic pump 2001 D, 8 μl/h, 1 day; DURECT Corporation) with about 200 μl portions. It means, that is, each pump releases at a rate of 0.00156, 0.00312, 0.0064 or 0.0124 mg/h (pilocarpine) or 0.0064, 0.0124, 0.0252 or 0.05 mg/h (cevimeline). About 5 mm of dorsal epidermis of a mouse anesthetized with diethyl ether was incised, the osmotic pump already filled with pilocarpine or cevimeline was subcutaneously implanted, and then the skin was stitched. Secreted amounts of salivary and tear fluid and sweating were periodically measured from just before the implantation of pump until 32 hours after the administration. The ornithine decarboxylase activity was measured 10 hours after the implantation.
as §3, §4

lacrimal gland [6] = assay: Tear fluid secretion during subcutaneous continuous administration (osmotic pump); conditions: mice, AUC of secreted amount
Protocol: as §1, §6, §7, §3, §4

[7] = s.c. bolus 0.03 mg/kg, 10 minutes after administration
[8] = s.c. bolus 0.1 mg/kg, 10 minutes after administration
[9] = s.c. bolus 0.3 mg/kg, 10 minutes after administration
[10] = s.c. bolus 1 mg/kg, 10 minutes after administration (Table 3)
[11] = s.c. bolus, 10 minutes after administration
[12] = s.c. bolus 1 mg/kg, ODC activity 6 hours after administration
[13] = s.c. bolus 3 mg/kg, ODC activity 6 hours after administration
[14] = s.c. bolus 10 mg/kg, ODC activity 6 hours after administration (Table 3)
[15] = s.c. osmotic pump 0.039 mg (0.00156 mg/h)
[16] = s.c. osmotic pump 0.078 mg (0.00312 mg/h)
[17] = s.c. osmotic pump 0.16 mg (0.0064 mg/h)
[18] = s.c. osmotic pump 0.31 mg (0.0124 mg/h)

CC[C@@H]1C(=O)OC[C@@H]1Cc1cncn1C [pilocarpine]
Salivary fluid (salivary gland [1]; [7]): 1.2 ± 0.15 fold increase vs. the vehicle group | Salivary fluid (salivary gland [1]; [8]): 1.8 ± 0.23 fold increase vs. the vehicle group | Salivary fluid (salivary gland [1]; [9]): 1.7 ± 0.15 fold increase vs. the vehicle group | Salivary fluid (salivary gland [1]; [10]): 2.0 ± 0.18 fold increase vs. the vehicle group | dose at which statistically significant acceleration of salivary fluid secretion was attained (salivary gland [1]; [11]): 0.1 mg/kg | time after administration at which secretion amount of salivary and tear fluid reached maximum (salivary gland [1]; s.c. bolus, every dose): 10 min | Tear fluid (lacrimal gland [2]; [7]): 0.65 ± 0.19 fold increase vs. the vehicle group | Tear fluid (lacrimal gland [2]; [8]): 0.80 ± 0.24 fold increase vs. the vehicle group | Tear fluid (lacrimal gland [2]; [9]): 1.1 ± 0.14 fold increase vs. the vehicle group | Tear fluid (lacrimal gland [2]; [10]): 2.7 ± 0.40 fold increase vs. the vehicle group | dose at which statistically significant acceleration of tear fluid secretion was attained (lacrimal gland [2]; [11]): 1 mg/kg | Glandular cell growth Salivary gland [3, 12]: 1.4 ± 0.48 fold increase vs. the vehicle group | Glandular cell growth Salivary gland [3, 13]: 1.3 ± 0.54 fold increase vs. the vehicle group | Glandular cell growth Salivary gland [3, 14]: 3.2 ± 1.1 fold increase vs. the vehicle group | Glandular cell growth Lacrimal gland [4, 12]: 0.69 ± 0.09 fold increase vs. the vehicle group | Glandular cell growth Lacrimal gland [4, 13]: 0.95 ± 0.23 fold increase vs. the vehicle group | Glandular cell growth Lacrimal gland [4, 14]: 2.8 ± 0.61 fold increase vs. the vehicle group | dose at which salivary fluid secretion acceleration action reached maximum (salivary gland [5]; s.c. continuous administration): 0.16 mg | Salivary fluid (salivary gland [5]; [15]): 1.1 ± 0.04 fold increase vs. vehicle group | Salivary fluid (salivary gland [5]; [16]): 1.5 ± 0.08 fold increase vs. vehicle group | Salivary fluid (salivary gland [5]; [17]): 2.9 ± 0.14 fold increase vs. vehicle group | Salivary fluid (salivary gland [5]; [18]): 2.8 ± 0.24 fold increase vs. vehicle group | Tear fluid (lacrimal gland [6]; [15]): 0.81 ± 0.02 fold increase vs. vehicle group | Tear fluid (lacrimal gland [6]; [16]): 1.1 ± 0.13 fold increase vs. vehicle group | Tear fluid (lacrimal gland [6]; [17]): 1.1 ± 0.14 fold increase vs. vehicle group | Tear fluid (lacrimal gland [6]; [18]): 1.1 ± 0.12 fold increase vs. vehicle group
